Type in all cases: biochemical
Experiment [1] deals with T1, human MMP-2 (amino acids 1-660) (Homo sapiens, UniProt P08253).
T1 construct: human MMP-2 (amino acids 1-660); made in house
T1 sequence (P08253 110-660): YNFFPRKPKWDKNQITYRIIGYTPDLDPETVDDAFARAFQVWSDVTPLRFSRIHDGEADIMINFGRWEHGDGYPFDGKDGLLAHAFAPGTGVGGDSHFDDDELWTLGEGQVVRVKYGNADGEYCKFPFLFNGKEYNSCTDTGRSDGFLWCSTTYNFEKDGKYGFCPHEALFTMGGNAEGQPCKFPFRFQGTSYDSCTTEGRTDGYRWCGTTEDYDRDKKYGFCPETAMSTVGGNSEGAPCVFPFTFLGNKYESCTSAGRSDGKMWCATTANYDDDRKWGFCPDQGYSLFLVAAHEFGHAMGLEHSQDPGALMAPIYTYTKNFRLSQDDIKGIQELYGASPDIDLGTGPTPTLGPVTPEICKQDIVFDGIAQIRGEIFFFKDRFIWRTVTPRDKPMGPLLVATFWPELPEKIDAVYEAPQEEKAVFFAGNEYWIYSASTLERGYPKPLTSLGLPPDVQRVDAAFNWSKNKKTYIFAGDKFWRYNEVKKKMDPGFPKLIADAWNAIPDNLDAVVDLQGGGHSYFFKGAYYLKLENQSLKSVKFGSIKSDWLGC
Briefly: MMP dose response assay for determining IC50, MMP-2. The conditions noted are these: recombinant enzyme, fluorescent-quench substrate 100 nM; read-out: MMP-2. The procedure, abridged:
(§1)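 Recombinant enzymes in 50 mM HEPES pH 7.4, 10 mM CaCl2, 0.05% Brij-35, at empirically set levels keeping activity linear, preincubated 1 h at room temperature with compound in triplicate. Fluorescence-quench peptide substrate (Eu/QSY7) added at 100 nM final. Background-subtracted signal expressed as percent of DMSO control for IC50.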

The target in experiment [2] is T2, human MMP-9 (amino acids 107-446) (Homo sapiens, UniProt P14780).
T2 construct: human MMP-9 (amino acids 107-446); made in house
Put plainly: MMP dose response assay for determining IC50, MMP-9. The conditions noted are these: recombinant enzyme, fluorescent-quench substrate 100 nM; read-out: MMP-9. The procedure, abridged:
as §1

In experiment [3] the target is T3, human MMP-1 (amino acids 100-262) (Homo sapiens, UniProt P03956).
T3 construct: human MMP-1 (amino acids 100-262); made in house
T3 sequence (P03956 100-262): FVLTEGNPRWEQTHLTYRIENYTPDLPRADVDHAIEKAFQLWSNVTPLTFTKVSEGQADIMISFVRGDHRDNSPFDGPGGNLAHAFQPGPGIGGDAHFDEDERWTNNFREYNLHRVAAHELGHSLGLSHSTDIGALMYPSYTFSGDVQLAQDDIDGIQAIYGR
Briefly: MMP dose response assay for determining IC50, MMP-1. The following applies: recombinant catalytic domain, fluorescent-quench substrate 100 nM. The procedure, abridged:
as §1

Where “and” joins values, the source holds several entries; their conditions need not be identical. Equal values may be shown once.

IC50 data for ten compounds are collected here from patent US20080085893A1, “MATRIX METALLOPROTEASE INHIBITORS” (priority 2006, published 2008).

T2 sequence (P14780 107-446): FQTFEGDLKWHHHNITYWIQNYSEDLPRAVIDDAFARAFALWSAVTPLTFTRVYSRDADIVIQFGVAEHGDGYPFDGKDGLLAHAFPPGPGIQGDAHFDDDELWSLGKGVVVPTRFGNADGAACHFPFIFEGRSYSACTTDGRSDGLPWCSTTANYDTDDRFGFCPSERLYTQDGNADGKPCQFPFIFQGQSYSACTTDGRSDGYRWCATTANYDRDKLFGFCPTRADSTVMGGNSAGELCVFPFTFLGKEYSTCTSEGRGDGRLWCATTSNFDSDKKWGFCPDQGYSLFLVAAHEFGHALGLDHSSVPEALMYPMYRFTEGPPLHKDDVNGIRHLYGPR

Turning to `Cc1ccc(Oc2ccc(N(C[C@H](N[C@H](C)c3ccccc3)C(=O)NO)S(C)(=O)=O)cc2)cc1` [Example 46, N-Hydroxy (2S)-3-{N-[4-(4-methylphenoxy)phenyl],N-methanesulfonylamino}-2-[(1R)-1-phenyl-1-ethyl]aminopropionamide], the IC50 is 24.1 nM in experiment [1], 1.54 nM in experiment [2] and above 10000 nM in experiment [3].
The like results for `Cc1ccc(Oc2ccc(N(C[C@@H](NCc3ccccc3)C(=O)NO)S(C)(=O)=O)cc2)cc1` [Example 26, N-Hydroxy (2R)-2-benzylamino-3-{N-[4-(4-methylphenoxy)phenyl],N-methanesulfonylamino}propionamide] were, in that order, 54.8 nM, 93.3 nM and above 10000 nM.
For `Cc1ccc(Oc2ccc(N(C[C@H](Nc3ccc(F)c(Cl)c3)C(=O)NO)S(C)(=O)=O)cc2)cc1` [Example 42, N-Hydroxy (2S)-2-(3-chloro-4-fluorophenyl)amino-3-{N-[4-(4-methylphenoxy)phenyl],N-methanesulfonylamino}propionamide], in that order: 431 nM, 19.9 nM and above 10000 nM.
The like results for `Cc1ccc(Oc2ccc(N(C[C@H](O)C(=O)NO)S(=O)(=O)Cc3ccccc3)cc2)cc1` [Example 14, N-Hydroxy (2S)-2-hydroxy-3-{N-[4-(4-methylphenoxy)phenyl],N-phenylmethylsulfonylamino}propionamide] were, in that order, 582 nM, 92.9 nM and above 10000 nM.
On to `CN(C)[C@H]1CCN([C@@H](CN(c2ccc(Oc3ccc(C(F)(F)F)cc3)cc2)S(C)(=O)=O)C(=O)NO)C1` [Example 74, N-Hydroxy (2S)-2-[(3S)-3-N,N-dimethylaminopyrrolidin-1-yl]-3-{N-[4-(4-trifluoromethylphenoxy)phenyl],N-methanesulfonylamino}propionamide], for which the figures for the IC50 in experiment [1], in experiment [2] and in experiment [3] were 17.7 nM, 3.86 nM and above 10000 nM, respectively.
The like results for `Cc1ccc(Oc2ccc(N(C[C@H](NC3CCCC3)C(=O)NO)S(C)(=O)=O)cc2)cc1` [Example 37, N-Hydroxy (2S)-2-cyclopentylamino-3-{N-[4-(4-methylphenoxy)phenyl],N-methanesulfonylamino}propionamide] were, in that order, 9.98 nM, 1.69 nM and above 10000 nM.
For `CCCS(=O)(=O)N(C[C@H](O)C(=O)NO)c1ccc(Oc2ccc(C)cc2)cc1` [Example 15, N-Hydroxy (2S)-2-hydroxy-3-{N-[4-(4-methylphenoxy)phenyl],N-(1-propyl)sulfonylamino}propionamide], in that order: 509 nM, 124 nM and above 10000 nM.
As to `Cc1ccc(Oc2ccc(N(C[C@H](NCc3ccccc3)C(=O)NO)S(C)(=O)=O)cc2)cc1` [Example 25, N-Hydroxy (2S)-2-benzylamino-3-{N-[4-(4-methylphenoxy)phenyl],N-methanesulfonylamino}propionamide], the IC50 in experiment [1] was 202 nM; in experiment [2] it was 7.16 nM; in experiment [3], above 10000 nM.
On to `Cc1ccc(Oc2ccc(N(C[C@H](Nc3ccc4ccccc4c3)C(=O)NO)S(C)(=O)=O)cc2)cc1` [Example 60, N-Hydroxy (2S)-3-{N-[4-(4-methylphenoxy)phenyl],N-methanesulfonylamino}-2-(naphthylen-2-yl)aminopropionamide], for which the IC50 in experiment [1] was 1440 nM and 875 nM; in experiment [2] it was 86.5 nM and 93.8 nM; in experiment [3], 5980 nM and > 10000 nM.
On to `Cc1ccc(Oc2ccc(N(C[C@H](N[C@@H](C)c3ccccc3)C(=O)NO)S(C)(=O)=O)cc2)cc1` [Example 47, N-Hydroxy (2S)-3-{N-[4-(4-methylphenoxy)phenyl],N-methanesulfonylamino}-2-[(1S)-1-phenyl-1-ethyl]aminopropionamide], for which the IC50 in experiment [1] was found to be 11.7 nM; in experiment [2] it was 0.54 nM; in experiment [3], 6790 nM.
